Measurements taken from patent publication US20240335442A1 (Eurofarma Laboratórios S.A., priority 2021, published 2024).

Legend:
[1] = molecular target: human sodium channel Nav 1.8 (Homo sapiens (Human), UniProt Q9Y5Y9); assay: Automated whole-cell voltage-clamp (ScreenPatch 384P), Nav 1.8 sodium current, Protocol 2; format: cell-based; conditions: read-out: Nav1.8 IC50
Description: (§1) Biological assays were performed on Chinese hamster ovary (CHO) cells expressing the human sodium channels Nav 1.8 and Nav 1.7 stably.
(§2) The experimental voltage-clamp protocol using the whole cell configuration was established on the automated ScreenPatch® 384P platform (SP384PE, Nanion Technologies, Livingston, NJ) and recording of the results was performed with a Nanion 384-well Patch Clamp chip (NPC) (Nanion Technologies, Livingston, NJ).
(§3) Compounds of Formula (I), were diluted in eight concentrations in the extracellular solution composed of physiological saline, buffered with HEPES (mM): NaCl, 137; KCl, 4; CaCl2, 3.8; MgCl2, 1; HEPES, 10; Glucose, 10; pH 7.4. The […], 50; CsF, 90; MgCl2, 5; EGTA, 5; HEPES, 10; pH 7.2. The duration of exposure of each compound with the cells expressing Nav 1.7 or Nav 1.8 was at least five minutes and the assays were performed at room temperature.
(§4) The measurements of the sodium currents of Nav 1.8 and Nav 1.7 were obtained using the voltage protocols described below: • Protocol 1: A holding voltage of-90 mV was established followed by a voltage phase of 200 ms to-120 mV, followed by a voltage step of 10 mV for 1 second for Nav 1.8 or 0 mV for Nav 1.7, followed by a step of-100 mV for 20 ms, followed by a step of 20 ms for 10 mV for Nav 1.8 or 0 mV for Nav 1.7 (TP1A) before returning to the holding voltage of-90 mV. • Protocol 2: A holding voltage of-100 mV was established followed by an inactivation voltage step at −40 mV for 8 seconds, followed by a −100 mV step for 20 ms, followed by a 20 ms step for 10 mV for Nav 1.8 or 0 mV for Nav 1.7 (TP1A) before returning to the holding voltage of-100 mV.
(§5) Protocols were repeated at a frequency of 0.1 Hz (Protocol 1) or 0.05 Hz (Protocol 2) and current amplitude was quantified over the TP1A phase log. The variation in the peak amplitude of the current was evaluated according to the Formula described below, after exposure of the cells expressing the channels, at each concentration of the different compounds:
(§6) where ITP1A,basal, and ITP1A,molecule represent the entry peaks of sodium currents into TP1A prior to exposure to the compound and in the presence of the compound, respectively.
(§7) The decrease in peak current amplitude, after exposure of the cells to the compounds, was used to calculate the percent relative blocking of the channels relative to the positive control according to the Formula below: […]
(§8) where % V and % CP represent the averages of the values of current inhibition with a vehicle (DMSO) and positive controls, respectively. The sodium currents of the positive control were considered as 100%.
(§9) where [Test] represents the concentration of the evaluated molecule, IC50 is the concentration of the compound that generates half of the maximum inhibition, N is the Hill's coefficient and % Block′ is the percentage of the sodium channel current (Nav 1.8 and Nav 1.7) inhibited at each concentration of the evaluated molecule. Data were obtained by non linear least squares regression with XL fit for Excel (Microsoft, Redmond, WA).
(§10) Compounds were tested in at least one assay to obtain the IC50 value.

[2] = molecular target: human sodium channel Nav 1.7 (Homo sapiens (Human), UniProt Q15858); assay: Automated whole-cell voltage-clamp (ScreenPatch 384P), Nav 1.7 sodium current, Protocol 2; format: cell-based; conditions: read-out: Nav1.7 IC50
Sequence of human sodium channel Nav 1.7 (Q15858 whole entry): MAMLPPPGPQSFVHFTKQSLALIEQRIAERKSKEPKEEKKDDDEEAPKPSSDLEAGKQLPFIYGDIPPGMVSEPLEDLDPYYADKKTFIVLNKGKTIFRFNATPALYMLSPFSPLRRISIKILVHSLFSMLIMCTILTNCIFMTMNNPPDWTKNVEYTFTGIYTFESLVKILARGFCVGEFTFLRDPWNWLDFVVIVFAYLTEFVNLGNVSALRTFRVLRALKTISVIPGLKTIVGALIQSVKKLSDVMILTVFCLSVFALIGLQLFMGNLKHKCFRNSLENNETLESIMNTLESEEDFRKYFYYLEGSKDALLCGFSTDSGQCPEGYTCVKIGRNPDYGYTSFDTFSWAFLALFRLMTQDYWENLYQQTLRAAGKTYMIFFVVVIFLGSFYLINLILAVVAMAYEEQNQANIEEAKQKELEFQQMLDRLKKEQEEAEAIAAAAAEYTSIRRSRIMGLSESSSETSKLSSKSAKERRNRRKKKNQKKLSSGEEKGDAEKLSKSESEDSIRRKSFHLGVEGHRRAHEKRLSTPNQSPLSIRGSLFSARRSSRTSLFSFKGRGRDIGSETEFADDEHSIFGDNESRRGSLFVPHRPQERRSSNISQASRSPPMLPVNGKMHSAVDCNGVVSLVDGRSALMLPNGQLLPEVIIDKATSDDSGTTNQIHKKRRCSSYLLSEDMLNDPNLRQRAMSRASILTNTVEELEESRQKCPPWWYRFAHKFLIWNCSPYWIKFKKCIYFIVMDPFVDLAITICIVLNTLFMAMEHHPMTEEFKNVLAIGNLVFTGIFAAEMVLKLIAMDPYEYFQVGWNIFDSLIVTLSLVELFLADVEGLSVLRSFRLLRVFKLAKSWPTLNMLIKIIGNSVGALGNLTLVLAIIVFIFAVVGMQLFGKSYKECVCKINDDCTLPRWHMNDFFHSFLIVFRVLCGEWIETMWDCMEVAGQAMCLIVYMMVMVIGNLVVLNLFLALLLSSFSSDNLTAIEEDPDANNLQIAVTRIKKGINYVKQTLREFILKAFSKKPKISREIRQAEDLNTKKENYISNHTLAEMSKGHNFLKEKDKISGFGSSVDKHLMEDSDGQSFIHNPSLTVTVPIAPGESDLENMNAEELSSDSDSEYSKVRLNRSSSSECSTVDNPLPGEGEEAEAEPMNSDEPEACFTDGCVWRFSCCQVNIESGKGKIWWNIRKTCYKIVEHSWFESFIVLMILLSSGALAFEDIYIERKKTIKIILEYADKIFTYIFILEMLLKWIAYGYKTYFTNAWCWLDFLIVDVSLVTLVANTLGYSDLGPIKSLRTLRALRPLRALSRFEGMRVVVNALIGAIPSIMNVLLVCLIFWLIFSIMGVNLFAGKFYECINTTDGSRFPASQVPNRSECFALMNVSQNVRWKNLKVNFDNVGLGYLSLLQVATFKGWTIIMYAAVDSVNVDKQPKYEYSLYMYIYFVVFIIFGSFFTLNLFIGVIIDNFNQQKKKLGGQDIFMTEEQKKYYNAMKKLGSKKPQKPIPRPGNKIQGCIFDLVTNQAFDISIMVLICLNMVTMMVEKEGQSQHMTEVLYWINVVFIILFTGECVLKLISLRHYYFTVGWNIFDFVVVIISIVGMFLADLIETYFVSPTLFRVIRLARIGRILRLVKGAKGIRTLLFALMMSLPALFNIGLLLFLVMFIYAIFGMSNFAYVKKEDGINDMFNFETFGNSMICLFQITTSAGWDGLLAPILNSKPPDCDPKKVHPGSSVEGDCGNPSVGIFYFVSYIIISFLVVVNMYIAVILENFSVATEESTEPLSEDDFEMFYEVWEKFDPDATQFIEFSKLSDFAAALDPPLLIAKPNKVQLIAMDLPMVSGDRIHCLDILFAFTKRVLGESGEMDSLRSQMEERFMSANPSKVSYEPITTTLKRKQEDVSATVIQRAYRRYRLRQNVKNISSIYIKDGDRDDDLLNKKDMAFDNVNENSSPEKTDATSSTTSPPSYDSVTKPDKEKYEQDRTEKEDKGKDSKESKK
Description: as §1, §2, §3, §4, §5, §6, §7, §8, §9, §10

Sequence of human sodium channel Nav 1.8 (Q9Y5Y9 whole entry): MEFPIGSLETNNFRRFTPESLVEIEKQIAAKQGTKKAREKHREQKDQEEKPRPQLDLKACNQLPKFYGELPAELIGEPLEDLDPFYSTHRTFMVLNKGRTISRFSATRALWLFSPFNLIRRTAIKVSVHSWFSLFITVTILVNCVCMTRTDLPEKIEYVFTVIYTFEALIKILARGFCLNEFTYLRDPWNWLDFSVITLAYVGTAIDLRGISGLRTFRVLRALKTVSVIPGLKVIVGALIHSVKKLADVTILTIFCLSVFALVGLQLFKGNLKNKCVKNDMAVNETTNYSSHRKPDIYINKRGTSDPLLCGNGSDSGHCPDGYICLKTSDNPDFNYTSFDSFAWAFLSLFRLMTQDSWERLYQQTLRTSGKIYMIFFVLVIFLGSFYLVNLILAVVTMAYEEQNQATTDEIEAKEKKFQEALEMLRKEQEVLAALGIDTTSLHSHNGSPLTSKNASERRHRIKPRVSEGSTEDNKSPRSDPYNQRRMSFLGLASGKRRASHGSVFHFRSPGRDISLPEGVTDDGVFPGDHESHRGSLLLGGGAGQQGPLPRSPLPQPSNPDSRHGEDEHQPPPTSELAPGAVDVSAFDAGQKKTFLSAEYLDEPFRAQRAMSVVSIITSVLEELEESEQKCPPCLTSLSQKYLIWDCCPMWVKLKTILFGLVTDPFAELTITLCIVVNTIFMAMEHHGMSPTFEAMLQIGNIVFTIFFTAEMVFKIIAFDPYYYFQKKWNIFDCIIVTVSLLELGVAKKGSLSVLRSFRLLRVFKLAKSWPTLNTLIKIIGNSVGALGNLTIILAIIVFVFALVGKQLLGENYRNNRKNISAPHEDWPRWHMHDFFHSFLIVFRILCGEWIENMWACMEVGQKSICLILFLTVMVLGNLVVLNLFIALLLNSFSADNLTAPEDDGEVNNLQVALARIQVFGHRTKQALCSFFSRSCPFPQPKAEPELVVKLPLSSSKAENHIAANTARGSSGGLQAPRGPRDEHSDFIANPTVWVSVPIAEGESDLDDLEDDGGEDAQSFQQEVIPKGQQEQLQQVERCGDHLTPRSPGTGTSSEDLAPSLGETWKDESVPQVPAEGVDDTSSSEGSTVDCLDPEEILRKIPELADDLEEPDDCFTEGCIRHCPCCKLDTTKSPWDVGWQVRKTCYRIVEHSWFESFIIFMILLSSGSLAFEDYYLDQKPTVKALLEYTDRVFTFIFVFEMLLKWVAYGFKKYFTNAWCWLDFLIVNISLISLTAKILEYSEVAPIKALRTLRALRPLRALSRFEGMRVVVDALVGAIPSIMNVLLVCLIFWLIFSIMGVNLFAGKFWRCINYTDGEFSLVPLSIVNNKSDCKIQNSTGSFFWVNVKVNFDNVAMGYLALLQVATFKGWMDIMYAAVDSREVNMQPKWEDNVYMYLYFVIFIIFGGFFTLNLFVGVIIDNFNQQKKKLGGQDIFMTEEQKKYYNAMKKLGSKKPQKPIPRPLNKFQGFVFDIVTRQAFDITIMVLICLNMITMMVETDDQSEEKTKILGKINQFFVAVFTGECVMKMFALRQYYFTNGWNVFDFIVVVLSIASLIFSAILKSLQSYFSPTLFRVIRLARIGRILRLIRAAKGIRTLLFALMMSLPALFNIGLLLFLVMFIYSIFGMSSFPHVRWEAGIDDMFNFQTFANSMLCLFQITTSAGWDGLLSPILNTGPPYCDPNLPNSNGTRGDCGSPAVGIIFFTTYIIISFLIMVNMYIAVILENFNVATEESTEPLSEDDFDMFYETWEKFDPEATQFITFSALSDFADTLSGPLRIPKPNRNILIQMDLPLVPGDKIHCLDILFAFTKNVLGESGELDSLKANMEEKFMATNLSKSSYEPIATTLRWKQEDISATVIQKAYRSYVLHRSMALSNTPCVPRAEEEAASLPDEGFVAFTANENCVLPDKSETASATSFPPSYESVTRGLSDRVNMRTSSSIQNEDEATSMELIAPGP

| SMILES | IC50 [1] [nM] | IC50 [2] [nM] |
| --- | --- | --- |
| Cc1cc(C)cc(/C=N/NC(=O)c2cncc(-c3ccc(OCC(C)C)cc3)n2)c1 [Compound 86, (E)-N′-(3,5-dimethylbenzylidene)-6-(4-isobutoxyphenyl)pyrazine-2-carbohydrazide] | 209 | 141 |
| COc1cc(/C=N/NC(=O)c2cncc(-c3ccc(OC(C)(C)C)cc3)n2)cc(OC)c1 [Compound 87, (E)-6-(4-(tert-butoxy)phenyl)-N′-(3,5-dimethoxybenzylidene)pyrazine-2-carbohydrazide] | 447 | 264 |
| COc1cc(/C=N/NC(=O)c2cncc(-c3ccc(OC4CC4)cc3)n2)cc(OC)c1 [Compound 88, (E)-6-(4-cyclopropoxyphenyl)-N′-(3,5-dimethoxybenzylidene)pyrazine-2-carbohydrazide] | 42.6 | 70.4 |
| COc1cc(/C=N/NC(=O)c2cncc(-c3ccc(OC4CCCCC4)cc3)n2)cc(OC)c1 [Compound 89, (E)-6-(4-(cyclohexyloxy)phenyl)-N′-(3,5-dimethoxybenzylidene)pyrazine-2-carbohydrazide] | 149 | 212 |
| COc1ccc(-c2nccnc2C(=O)N/N=C/c2cc(OC)cc(OC)c2)cc1 [Compound 90, (E)-N′-(3,5-dimethoxybenzylidene)-3-(4-methoxyphenyl)pyrazine-2-carbohydrazide] | > 1000 | > 10000 |
| COc1ccc(-c2cnc(C(=O)N/N=C/c3cc(OC)cc(OC)c3)cn2)cc1 [Compound 91, (E)-N′-(3,5-dimethoxybenzylidene)-5-(4-methoxyphenyl)pyrazine-2-carbohydrazide] | > 1000 | > 10000 |
| COc1cc(/C=N/NC(=O)c2cncc(-c3ccc(F)cc3)n2)cc(OC)c1 [Compound 92, (E)-N′-(3,5-dimethoxybenzylidene)-6-(4-fluorophenyl)pyrazine-2-carbohydrazide] | > 1000 | > 10000 |
| COc1cc(/C=N/NC(=O)c2cncc(-c3cccc(Cl)c3)n2)cc(OC)c1 [Compound 93, (E)-6-(3-chlorophenyl)-N′-(3,5-dimethoxybenzylidene)pyrazine-2-carbohydrazide] | > 1000 | > 10000 |
| COc1cc(/C=N/NC(=O)c2cncc(-c3cccc(F)c3)n2)cc(OC)c1 [Compound 94, (E)-N′-(3,5-dimethoxybenzylidene)-6-(3-fluorophenyl)pyrazine-2-carbohydrazide] | > 1000 | > 10000 |
| COc1cc(/C=N/NC(=O)c2cncc(-c3ccccc3Cl)n2)cc(OC)c1 [Compound 95, (E)-6-(2-chlorophenyl)-N′-(3,5-dimethoxybenzylidene)pyrazine-2-carbohydrazide] | > 1000 | > 10000 |
| COc1cc(/C=N/NC(=O)c2cncc(-c3ccc(C)cc3)n2)cc(OC)c1 [Compound 96, (E)-N′-(3,5-dimethoxybenzylidene)-6-(p-tolyl)pyrazine-2-carbohydrazide] | 887 | > 10000 |
| COc1cc(/C=N/NC(=O)c2cncc(-c3ccccc3)n2)cc(OC)c1 [Compound 97, (E)-N′-(3,5-dimethoxybenzylidene)-6-phenylpyrazine-2-carbohydrazide] | 394 | > 10000 |
| COc1cc(/C=N/NC(=O)c2cncc(-c3ccccc3F)n2)cc(OC)c1 [Compound 98, (E)-N′-(3,5-dimethoxybenzylidene)-6-(2-fluorophenyl)pyrazine-2-carbohydrazide] | > 1000 | > 10000 |
| COc1cc(/C=N/NC(=O)c2cncc(-c3ccccc3OC)n2)cc(OC)c1 [Compound 102, (E)-N′-(3,5-dimethoxybenzylidene)-6-(2-methoxyphenyl)pyrazine-2-carbohydrazide] | 459 | > 10000 |
| COc1cc(/C=N/NC(=O)c2cncc(-c3ccncc3)n2)cc(OC)c1 [Compound 103, (E)-N′-(3,5-dimethoxybenzylidene)-6-(pyridin-4-yl)pyrazine-2-carbohydrazide] | > 1000 | > 10000 |
| COc1cc(/C=N/NC(=O)c2cncc(-c3cccnc3)n2)cc(OC)c1 [Compound 104, (E)-N′-(3,5-dimethoxybenzylidene)-6-(pyridin-3-yl)pyrazine-2-carbohydrazide] | > 1000 | > 10000 |
| CCOc1ccc(-c2cncc(C(=O)N/N=C/c3cc(F)cc(OC)c3)n2)c(OC)c1 [Compound 105, (E)-6-(4-ethoxy-2-methoxypehnyl)-N′-(3-fluoro-5-methoxybenzylidene)pyrazine-2-carbohydrazide] | 33.7 | 44.6 |
| CCCOc1cc(/C=N/NC(=O)c2cncc(-c3ccc(OCC)cc3OC)n2)cc(OC)c1 [Compound 106, (E)-6-(4-ethoxy-2-methoxyphenyl)-N′-(3-methoxy-5-propoxybenzylidene)pyrazine-2-carbohydrazide] | 90.2 | 83 |
| CCOc1ccc(-c2cncc(C(=O)N/N=C/c3cc(OC)c(F)c(OC)c3)n2)c(OC)c1 [Compound 107, (E)-6-(4-ethoxy-2-methoxyphenyl)-N′-(4-fluoro-3,5-dimethoxybenzylidene)pyrazine-2-carbohydrazide] | 1000 | 5160 |
| CCOc1ccc(-c2cncc(C(=O)N/N=C/c3cccc(OC)c3)n2)c(OC)c1 [Compound 108, (E)-6-(4-ethoxy-2-methoxyphenyl)-N′-(3-methoxybenzylidene)pyrazine-2-carbohydrazide] | 17.7 | 30.8 |
| COc1cc(/C=N/NC(=O)c2cncc(-c3ccc(OC)cc3C)n2)cc(OC)c1 [Compound 109, (E)-N′-(3,5-dimethoxybenzylidene)-6-(4-methoxy-2-methylphenyl)pyrazine-2-carbohydrazide] | 149 | 566 |
| CCOc1ccc(-c2cncc(C(=O)N/N=C/c3cccc(OC)c3)n2)c(Cl)c1 [Compound 111, (E)-6-(2-chloro-4-ethoxyphenyl)-N′-(3-methoxybenzylidene)pyrazine-2-carbohydrazide] | 119 | 541 |
| COc1cc(/C=N/NC(=O)c2cncc(-c3ccc(OC)cc3OC(F)(F)F)n2)cc(OC)c1 [Compound 112] | 966 | 2350 |
| CCCc1ccc(-c2cncc(C(=O)N/N=C/c3cc(OC)cc(OC)c3)n2)cc1 [Compound 113, (E)-N′-(3,5-dimethoxybenzylidene)-6-(4-propylphenyl)pyrazine-2-carbohydrazide] | 433 | 1000 |
| COc1cc(/C=N/NC(=O)c2cncc(-c3ccccc3N3CCOCC3)n2)cc(OC)c1 [Compound 114] | > 1000 | > 10000 |
| COc1cc(/C=N/NC(=O)c2cncc(-c3ccc(CC(C)C)cc3)n2)cc(OC)c1 [Compound 116, (E)-N′-(3,5-dimethoxybenzylidene)-6-(4-isobutylphenyl)pyrazine-2-carbohydrazide] | 332 | 666 |
| CCOc1ccc(-c2cncc(C(=O)N/N=C/c3cc(OC)cc(OC)c3)n2)cc1Cl [Compound 117, (E)-6-(3-chloro-4-ethoxyphenyl)-N′-(3,5-dimethoxybenzylidene)pyrazine-2-carbohydrazide] | 238 | 737 |
| CCSc1ccc(-c2cncc(C(=O)N/N=C/c3cc(OC)cc(OC)c3)n2)cc1 [Compound 118, (E)-N′-(3,5-dimethoxybenzylidene)-6-(4-(ethylthio)phenyl)pyrazine-2-carbohydrazide] | 79.9 | 416 |
| CCOc1ccc(-c2cncc(C(=O)N/N=C/c3cccc(OC)c3)n2)c(F)c1 [Compound 119, (E)-6-(4-ethoxy-2-fluorophenyl)-N′-(3-methoxybenzylidene)pyrazine-2-carbohydrazide] | 128 | > 10000 |
| CCOc1ccc(-c2cncc(C(=O)N/N=C/c3cccc(OC)c3)n2)c(C(F)(F)F)c1 [Compound 120, (E)-6-(4-ethoxy-2-(trifluoromethyl)phenyl)-N′-(3-methoxybenzylidene)pyrazine-2-carbohydrazide] | 133 | 116 |
